Test results published in PMC5515887, “Ruthenium-conjugated chrysin analogues modulate platelet activity, thrombus formation and haemostasis with enhanced efficacy” (Scientific Reports, 2017).

Experiments:
[1] = tested on: human washed platelets; test: CRP-XL-induced aggregation of human washed platelets (optical aggregometry); format: cell-based; conditions: CRP-XL 0.5 μg/mL
Experimental: To determine the effects of chrysin and thio-chrysin and their Ru-complexes in the modulation of platelet activation, aggregation assays were performed using cross-linked collagen-related peptide (CRP-XL) as a platelet agonist, by optical aggregometry. Firstly, to determine the effects of chrysin and its derivatives on isolated platelets, aggregation assays were performed using human washed platelets (devoid of plasma proteins and other blood cells).
Figure 2 Effects of chrysin and its derivatives in washed platelet aggregation. […] The aggregation traces shown are representative of three separate experiments.
(§1) The preparation of human platelets and aggregation assays were performed using standard protocols as described by us previously, [16]. Briefly, human blood was collected in 3.2% citrate containing vacutainers via venepuncture from healthy, aspirin-free individuals with informed consent in accordance with the methods approved by the University of Reading Research Ethics Committee. All methods were performed in accordance with the relevant institutional and national guidelines and regulations. Blood samples were centrifuged at 102 g for 20 minutes at room temperature to separate the PRP, which was used in aggregation, flow cytometry, static platelet adhesion, calcium mobilisation and clot retraction assays. For the preparation of washed platelets, 50 mL of blood samples were mixed with 7.5 mL of ACD (acid citrate dextrose) (20 g/L glucose, 25 g/L sodium citrate and 15 g/L citric acid) and centrifuged at 102 g for 20 minutes at room temperature. The PRP was carefully aspirated from the other blood cells prior to mixing with 3 mL of ACD and centrifuging at 1413 g for 10 minutes at room temperature. The resulting platelet pellet was re-suspended in modified Tyrodes-HEPES buffer (2.9 mM KCl, 134 mM NaCl, 0.34 mM Na2HPO4.12H20, 1 mM MgCl2, 12 mM NaHCO3, 20 mM HEPES, pH 7.3) and washed by centrifuging again at 1413 g for 10 minutes. The resulting platelet pellet was suspended in modified Tyrodes-HEPES buffer at a density of 4 × 10^8 cells/mL for aggregation, dense granule secretion, cellular uptake studies and calcium mobilisation assays. Human platelet aggregation was performed using CRP-XL as an agonist in the presence and absence of various concentrations of chrysin and its synthetic derivatives by optical aggregometry. A vehicle control [DMSO at a concentration of less than 0.1% (v/v)] was included in all the experiments. Dense granule secretion in platelets was determined by measuring the ATP release using the luciferin-luciferase reagent by lumi-aggregometry (Chrono-Log, USA). SDS-PAGE and immunoblotting analysis were performed using standard protocols. The rabbit anti-phospho-specific antibodies for human AKT pS473, FAK pY397 and Src pY527 were obtained from Abcam, UK and rabbit anti-human 14-3-3ζ (Santa Cruz Biotechnology, USA) was used to detect protein 14-3-3ζ as a loading control in immunoblot assays. The Cy5-conjugated goat anti-rabbit IgG (Life technologies, UK) was used as the secondary antibody.

[2] = tested on: human platelet-rich plasma (PRP); test: CRP-XL-induced platelet aggregation in human platelet-rich plasma (optical aggregometry); format: cell-based; conditions: PRP, CRP-XL 0.5 μg/mL
Experimental: Therefore, to determine the effects of various concentrations of chrysin and its derivatives in the presence of plasma proteins, aggregation assays were performed using human platelet-rich plasma (PRP) and 0.5 μg/mL CRP-XL.
Figure 3 Impact of chrysin and its derivatives on platelet activation in platelet-rich plasma. […] The platelet aggregation was monitored for 5 minutes. The traces shown are representative of three separate experiments.
as §1

[3] = tested on: outside-in signalling by integrin αIIbβ3; test: Clot retraction assay (outside-in signalling by integrin αIIbβ3); format: cell-based, human; conditions: PRP; 50 μM compound; 1 U/mL thrombin; three hours
Experimental: R represents ‘resting’ platelets.
Following fibrinogen binding, integrin αIIbβ3 triggers signalling into the platelets in order to induce clot retraction and promote wound healing. This also represents a late downstream signalling event in the platelet activation process. To determine whether chrysin and its derivatives affect outside-in signalling by integrin αIIbβ3, a clot retraction assay was performed. […] At three hours, the clot obtained with the vehicle control [0.1% (v/v) DMSO] retracted to around 50 mg.
PRP (200 µL) was mixed with 5 µL of red blood cells and the final volume was made to 950 µL with modified Tyrodes-HEPES buffer in the presence and absence of various concentrations of chrysin or its synthetic derivatives. Clot formation was initiated by adding 1 U/mL (50 µL) thrombin. A glass capillary was placed in middle of the tube and the clot retraction was observed over a period of 3 hours at room temperature. Clot weight was measured as a marker for clot retraction after 3 hours.

[4] = tested on: α-granule secretion in platelets; test: P-selectin exposure by flow cytometry (marker for α-granule secretion); format: cell-based, human; conditions: PRP; CRP-XL 0.5 μg/mL
Experimental: Platelets primarily contain two types of granules (α- and dense granules) and the activation of platelets releases the granule contents to the external environment, where they play important roles in the stimulation of additional platelets and their recruitment to the growing thrombus. […] However, chrysin affected α-granule secretion only at a minimum concentration of 50 μM in platelets.
Figure 5 Chrysin and its derivatives affect granule secretion in platelets. […] The level of P-selectin (as a marker for α-granule secretion) was quantified using PECy5-labelled anti-human P-selectin antibodies by flow cytometry. […] R represents ‘resting’ platelets. […] Platelets were then activated with 0.5 μg/mL CRP-XL and the ATP release was monitored for 5 minutes by lumi-aggregometry. The traces shown are representative of three separate experiments.

[5] = tested on: inside-out signalling to integrin αIIbβ3; conditions: PRP; CRP-XL 0.5 μg/mL
Experimental: The level of fluorescence obtained with vehicle control was taken as 100% to calculate the extent of inhibition in chrysin and its derivatives-treated samples. R represents ‘resting’ platelets. Cumulative data represent mean ± S.D. (n = 4). […] Following incubation, clotting was initiated by the addition of 1 U/mL thrombin and the clot retraction was monitored for three hours. The remaining clot weight at three hours was measured to analyse the extent of retraction process. The image shown on the right is representative of four separate experiments. *Indicates significance with respect to controls and ^#indicates significance with respect to the respective chrysin concentrations; p values shown (*^,# p < 0.05, **^,## p < 0.01 and ***^,### p < 0.001) are as calculated by one-way ANOVA using Graphpad Prism.
The platelets (PRP) were treated with a vehicle control [0.1% (v/v) DMSO] or with different concentrations of chrysin and its synthetic derivatives prior to activation with CRP-XL (0.5 µg/mL). The levels of fibrinogen binding and P-selectin exposure were measured using FITC-labelled anti-human fibrinogen antibodies (Dako, UK) and PECy5-labelled CD62P antibodies (BD Biosciences, UK), respectively. The median fluorescence intensity was used to assess the levels of fibrinogen binding and P-selectin exposure on the platelet surface. The level of fluorescence obtained with the vehicle control was taken as 100% when compared with the treated samples.

Row | Compound | effect on CRP-XL-induced platelet aggregation in washed platelets [1] | effect on platelet aggregation in PRP [2] | effect on clot retraction [3] | concentrations that significantly inhibit α-granule secretion [4] [µM] | effect on platelet aggregation at lower concentrations ([2]; 6.25 μM and 12.5 μM compound) | concentrations with significantly more effects on fibrinogen binding than the respective concentrations of chrysin [5]
1 | Cc1ccc(C(C)C)cc1.Cc1ccc(C(C)C)cc1.[Cl-].[Cl-].[Cl-].[Cl-].[Ru+2].[Ru+2] [Ru-Cl, bis [dichlorido (η^6-p-cymene)] ruthenium(II), reference compound] | failed to affect platelet aggregation | failed to show any inhibitory effects | – | – | – | –
2 | Oc1cc(O)c2c(=S)cc(-c3ccccc3)oc2c1 [thio-chrysin] | no significant differences | – | significant inhibitory effect | ≥ 25 | – | –
3 | chlorido [(5-oxo-κO)-7-hydroxy-(2-phenyl)-4H-chromen-4-onato-κO] (η6-p-cymene)ruthenium(II) [Ru-chrysin] | inhibited CRP-XL-induced platelet aggregation in a concentration-dependent manner | – | – | ≥ 25 | did not significantly affect the platelet aggregation | more than 25 μM
